According to patent publication US20190231785A1, “PHOSPHODIESTERASE INHIBITOR TREATMENT” (Cyrano Therapeutics, Inc., priority 2012, published 2019):

Assays:
[1] = asthma and COPD; cited from earlier work
[2] = system: patients with hyposmia and hypogeusia; settings: oral 200 to 800 mg/d
Procedure: Smell and taste functions under each study condition were measured by standardized psychophysical sensory testing techniques. Measurements included determination of detection thresholds (DTs), recognition thresholds (RTs), magnitude estimation (ME), and hedonic response (HR) for 4 odors (e.g., pyridine [dead fish], nitrobenzene [bitter almond], thiophene [petroleum], and amyl acetate [banana oil]) (olfactometry) and for 4 tastants (e.g., sodium chloride [salt], sucrose [sweet], hydrochloride [sour], and urea [bitter]) (gustometry). […] Each measurement was performed independent of any prior knowledge of response.
(§1) Values for the oral trial were taken from the last measurements made before discontinuation of oral drug treatment and before initiation of the intranasal trial. This period varied from 2 to 12 months after oral treatment initiation and reflected the maximal improvement in sensory function each patient experienced.
The mean and standard error of the mean for all values obtained at each study condition were compared. Differences were considered significant if P<0.05 by the unpaired t test. Paired comparison tests were also used with differences considered significant if P<0.05 by the t test.

[3] = system: patients with hyposmia and hypogeusia; assay: Subjective changes in smell and taste function by questionnaire, scale 0 to 100 (Example 8); assay type: in vivo, human; settings: oral 200 to 800 mg/d; of 10 patients
Procedure: Subjective changes in smell and taste function under each study condition were measured by questionnaire before measurements of smell or taste function. Responses were graded on a scale from 0 to 100, with 0 reflecting no subjective response in overall sensory function; 100, return to normal sensory function; and values between 0 and 100 intermediate responses. Overall sensory function was defined as the ability to smell all odors and identify all tastants, although response intensity varied.
as §1

## Cn1c(=O)c2[nH]cnc2n(C)c1=O [theophylline]
[1]
  concentrations at which anti-inflammatory effects are seen: less than 10 mg/L
[2]
  hyposmia (olfactometry overall): improved with 2 to 12 months of treatment
[2]; 2 to 12 months
  DTs and RTs for all odorants: decreased (more sensitive)
  HRs for all odorants: increased
  MEs for all odorants: increased (more sensitive)
[3]
  patients reporting no improvement: 4 patients
